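Compound exposure: 48 hours, 5 concentrations, 96-well plates. At the TGI there is no net growth.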
Columns and labels:
Assay in all cases: inhibition of tumour cell growth, NCI panel, 48 h
[1] = tested on: 786-0 renal
[2] = tested on: A498 renal
[3] = tested on: A549 NSCLC
[4] = tested on: ACHN renal
[5] = tested on: BT-549 breast
[6] = tested on: CAKI-1 renal
[7] = tested on: CCRF-CEM leukemia
[8] = tested on: COLO 205 colon
[9] = tested on: DU-145 prostate
[10] = tested on: EKVX NSCLC
[11] = tested on: HCC-2998 colon
[12] = tested on: HCT-116 colon
[13] = tested on: HL-60(TB) leukemia
[14] = tested on: HOP-62 NSCLC
[15] = tested on: HOP-92 NSCLC
[16] = tested on: HS 578T breast
[17] = tested on: HT29 colon
[18] = tested on: IGROV1 ovarian
[19] = tested on: K-562 leukemia
[20] = tested on: KM12 colon
[21] = tested on: LOX IMVI melanoma
[22] = tested on: M14 melanoma
[23] = tested on: MALME-3M melanoma
[24] = tested on: MCF7 breast
[25] = tested on: MDA-MB-231 breast
[26] = tested on: MDA-MB-435
[27] = tested on: MDA-N
[28] = tested on: MOLT-4 leukemia
[29] = tested on: NCI-H226 lung
[30] = tested on: NCI-H23 lung
[31] = tested on: NCI-H460 lung
[32] = tested on: NCI-H522 lung
[33] = tested on: NCI/ADR-RES ovarian
[34] = tested on: OVCAR-3 ovarian
[35] = tested on: OVCAR-4 ovarian
[36] = tested on: OVCAR-5 ovarian
[37] = tested on: OVCAR-8 ovarian
[38] = tested on: PC-3 prostate
[39] = tested on: RPMI-8226 leukemia
[40] = tested on: RXF 393 renal
[41] = tested on: SF-268 CNS
[42] = tested on: SF-295 CNS
[43] = tested on: SF-539 CNS
[44] = tested on: SK-MEL-2 melanoma
[45] = tested on: SK-MEL-28 melanoma
[46] = tested on: SK-MEL-5 melanoma
[47] = tested on: SK-OV-3 ovarian
[48] = tested on: SN12C renal
[49] = tested on: SNB-19 CNS
[50] = tested on: SNB-75 CNS
[51] = tested on: SR leukemia
[52] = tested on: SW-620 colon
[53] = tested on: T-47D breast
[54] = tested on: TK-10 renal
[55] = tested on: UACC-257 melanoma
[56] = tested on: UACC-62 melanoma
[57] = tested on: UO-31 renal

In the case of `CCC/C=C/C=C/C(=O)OC1C(C)C2(O)C3C=C(C)C(=O)C3CC(COC(C)=O)=CC2C2C(C)(C)C12OC(=O)C(C)C` (configuration not stated), the TGI [1] is reported as 23.1 µM, the TGI [2] is reported as 44.9 µM and the TGI [3] is reported as greater than 100 µM. It also gave a TGI [4] of 39.3 µM, a TGI [5] of 35.1 µM and a TGI [6] of 33.9 µM. It also gave a TGI [7] of 19.1 µM, a TGI [8] of 9.18 µM and a TGI [9] greater than 100 µM. For the same compound, the TGI [10] was 42.5 µM, the TGI [11] was 14.7 µM and the TGI [12] was 26.8 µM. The TGI [13] was greater than 48.3 µM, the TGI [14] was 0.0586 µM and the TGI [15] was 27.2 µM. It also gave a TGI [16] of 55.4 µM, a TGI [17] of 25 µM and a TGI [18] of 33.1 µM. For the same compound, the TGI [19] was greater than 68.6 µM, the TGI [20] was 32 µM and the TGI [21] was 34.8 µM. For the same compound, the TGI [22] was 27.7 µM, the TGI [23] was 26.5 µM and the TGI [24] was 32 µM. The TGI [25] was 20.2 µM, the TGI [26] was 18.3 µM and the TGI [27] was 20.1 µM. It also gave a TGI [28] of 16.2 µM, a TGI [29] of 42.1 µM and a TGI [30] of 26.9 µM. For the same compound, the TGI [31] was greater than 83.7 µM, the TGI [32] was 26.8 µM and the TGI [33] was 47.3 µM. The TGI [34] was 32.8 µM, the TGI [35] was 57.6 µM and the TGI [36] was 47.9 µM. The TGI [37] was 55.8 µM, the TGI [38] was 27.3 µM and the TGI [39] was 52.5 µM. It also gave a TGI [40] of 33.6 µM, a TGI [41] of 28.4 µM and a TGI [42] of 22.1 µM. The TGI [43] was 25 µM, the TGI [44] was 35.2 µM and the TGI [45] was 26.1 µM. For the same compound, the TGI [46] was 19.2 µM, the TGI [47] was greater than 100 µM and the TGI [48] was 23.5 µM. It also gave a TGI [49] of 52.6 µM, a TGI [50] of 36.1 µM and a TGI [51] of 35.8 µM. The TGI [52] was 20.4 µM, the TGI [53] was 35.4 µM and the TGI [54] was 47.1 µM. For the same compound, the TGI [55] was 31.8 µM, the TGI [56] was 16.3 µM and the TGI [57] was 29.4 µM.

Source: PubChem BioAssay (NCI)
